For the test, the system named is C. difficile. The test can be described thus: in vitro gut digestion and fermentation model (SHIME PathoGut) assessing CDI and CDI recurrence. Format: cell-based, Clostridium difficile. The note with it: control experiments (FIGS. 1 and 2); vancomycin 125 mg/L three times per day for seven days after the 4 weeks of CDI.

On to `CN[C@H](CC(C)C)C(=O)N[C@H]1C(=O)N[C@@H](CC(N)=O)C(=O)N[C@H]2C(=O)N[C@H]3C(=O)N[C@H](C(=O)N[C@H](C(=O)O)c4cc(O)cc(O)c4-c4cc3ccc4O)[C@H](O)c3ccc(c(Cl)c3)Oc3cc2cc(c3O[C@@H]2O[C@H](CO)[C@@H](O)[C@H](O)[C@H]2O[C@H]2C[C@](C)(N)[C@H](O)[C@H](C)O2)Oc2ccc(cc2Cl)[C@H]1O` [vancomycin], for which the CD cell count entry is reported as “below detectable levels”.

The record behind these values is patent publication US20220395542A1, “Nutritional Compositions for Treating a Clostridium Difficile Infection” (ABBOTT LABORATORIES, priority 2019, published 2022).
